T1: ECE-1 (Bos taurus, UniProt P42891)
T1 construct: The entire coding regions from bovine ECE-1; made in house
T1 sequence (P42891 with tags, fused parts or gaps A87G/A695G limits assumed): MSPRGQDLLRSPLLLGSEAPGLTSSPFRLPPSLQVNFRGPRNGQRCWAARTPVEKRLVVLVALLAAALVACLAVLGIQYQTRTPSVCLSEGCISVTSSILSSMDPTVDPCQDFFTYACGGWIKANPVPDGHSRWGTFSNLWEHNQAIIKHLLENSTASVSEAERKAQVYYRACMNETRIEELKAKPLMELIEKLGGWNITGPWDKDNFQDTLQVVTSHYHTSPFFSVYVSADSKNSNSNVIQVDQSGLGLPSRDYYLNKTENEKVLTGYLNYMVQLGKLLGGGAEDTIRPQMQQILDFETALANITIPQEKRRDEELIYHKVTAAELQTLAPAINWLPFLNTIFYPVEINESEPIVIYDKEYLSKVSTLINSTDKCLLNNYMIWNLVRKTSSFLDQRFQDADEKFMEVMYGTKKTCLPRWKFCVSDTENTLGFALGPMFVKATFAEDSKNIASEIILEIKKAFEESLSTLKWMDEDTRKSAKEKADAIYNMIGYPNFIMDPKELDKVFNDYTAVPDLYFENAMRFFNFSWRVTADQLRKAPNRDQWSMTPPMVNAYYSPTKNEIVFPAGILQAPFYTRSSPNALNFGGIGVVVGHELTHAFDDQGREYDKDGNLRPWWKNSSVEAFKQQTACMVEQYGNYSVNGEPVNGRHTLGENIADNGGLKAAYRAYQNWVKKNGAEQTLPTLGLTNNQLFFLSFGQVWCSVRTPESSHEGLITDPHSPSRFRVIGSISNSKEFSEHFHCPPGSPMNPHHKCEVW

B1: ECE-1: novel 758-amino acid polypeptide, bovine endothelin converting enzyme-1 (protein, UniProt P42891 1-754, looked up)
chain: MMSTYKRATLDEEDLVDSLSESDVYPNHLQVNFRGPRNGQRCWAARTPVEKRLVVLVALLAAALVACLAVLGIQYQTRTPSVCLSEACISVTSSILSSMDPTVDPCQDFFTYACGGWIKANPVPDGHSRWGTFSNLWEHNQAIIKHLLENSTASVSEAERKAQVYYRACMNETRIEELKAKPLMELIEKLGGWNITGPWDKDNFQDTLQVVTSHYHTSPFFSVYVSADSKNSNSNVIQVDQSGLGLPSRDYYLNKTENEKVLTGYLNYMVQLGKLLGGGAEDTIRPQMQQILDFETALANITIPQEKRRDEELIYHKVTAAELQTLAPAINWLPFLNTIFYPVEINESEPIVIYDKEYLSKVSTLINSTDKCLLNNYMIWNLVRKTSSFLDQRFQDADEKFMEVMYGTKKTCLPRWKFCVSDTENTLGFALGPMFVKATFAEDSKNIASEIILEIKKAFEESLSTLKWMDEDTRKSAKEKADAIYNMIGYPNFIMDPKELDKVFNDYTAVPDLYFENAMRFFNFSWRVTADQLRKAPNRDQWSMTPPMVNAYYSPTKNEIVFPAGILQAPFYTRSSPNALNFGGIGVVVGHELTHAFDDQGREYDKDGNLRPWWKNSSVEAFKQQTACMVEQYGNYSVNGEPVNGRHTLGENIADNGGLKAAYRAYQNWVKKNGAEQTLPTLGLTNNQLFFLSFAQVWCSVRTPESSHEGLITDPHSPSRFRVIGSISNSKEFSEHFHCPPGSPMNPHHKCEVW
modifications: full-length

How the values were obtained:
[1] = ET-1(1-20) and ET-1(1-22) relative to authentic ET-1(1-21); cited from earlier work
ECE-1 [2] = target: T1, ECE-1; test: Secretion of big and mature ET-1 by preproET-1-transfected CHO/ECE-1 cells (conversion of endogenous big ET-1); format: cell-based, bovine; conditions: preproET-1-transfected CHO/ECE-1 cells
Method: Transient transfection of the preproET-1 cDNA was performed by the DEAE-dextran method as described (Sakurai et al., 1990). Twelve hours after transfection, cells were refed with fresh medium with or without ECE inhibitors. The medium was conditioned for an additional 12 hours and directly subjected to EIA for mature and big ET-1 (Suzuki et al., 1990; Suzuki et al., 1989). For the Ca^2+ transient bioassay (see below), Phenol Red-free CHO-SFM medium (Gibco/BRL) without serum was used in order to avoid artefacts induced by serum and the dye.
To examine whether the expressed ECE-1 can convert big ET-1 in intact cells, paired cultures of CHO/ECE-1 cells and untransfected CHO cells were transiently transfected with the preproET-1 construct. After the transient transfection, the amounts of mature and big ET-1 secreted into the medium were measured by EIA. […] The functional authenticity of the immunoreactive mature peptide produced from the double-transfected cells was examined with a bioassay system that uses another line of CHO cells expressing human ETA receptors as reporter cells. […] The cells were loaded with the Ca^2+ indicator Fura-2/AM, and directly challenged with serum-free, Phenol Red-free culture supernatants from the aforementioned double-transfection protocols. […] Next the supernatants from the preproET-1-transfected CHO/ECE-1 cells were added, so that the final concentration of ET-1 as measured by EIA was ≈20 pM.

NEP = conditions: cited from earlier work
ECE-1 [3] = target: T1, ECE-1; test: pH profile of ECE-1 activity in solubilized CHO/ECE-1 membranes; format: biochemical, bovine
Method: FIG. 2C. pH profile of ECE-1 activity expressed in solubilized CHO/ECE-1 membranes.
Reaction mixtures for ECE assay (50 μl) contained 0.1M sodium phosphate buffer (pH 6.8), 0.5M NaCl, 0.1 μM human big ET-1(1-38) and enzyme fraction. For some studies, the reactions were preincubated at 37° C. with various protease inhibitors for 15 minutes prior to the addition of big ET-1. The reactions were incubated at 37° C. for 30 min in siliconized 0.5-ml microcentrifuge tubes. […] Duplicate assay wells were used for each enzyme reaction. Protein concentration was determined by the Bradford method (Bio-Rad) using IgG as standard.

Molecule	vasoconstrictor/biological activity (in words) [1]	concentration secreted in culture supernatant (ECE-1 [2]) [pM]	degradation by NEP (in words) (NEP)	optimal pH of ECE activity (ECE-1 [3])
mature ET-1: 21-residue mature peptide; human ET-1(1-21) obtained from American Peptides	the most potent vasoconstrictor substance known	241	rapidly degrades	
B1				6.8
